Measurements reported in patent publication US20080287398A1, “COLD MENTHOL RECEPTOR-1 ANTAGONISTS” (priority 2007, published 2008).
Values joined by “and” are separate entries in the source; they are usually repeats but may differ in a detail not shown here. Equal entries are not always repeated. Where two headings read alike, the source gives them in different places.

Target: T1, canine TRPM8 (Canis lupus familiaris, UniProt Q1A7N1)
T1 construct: expressed in transfected cells
Test: In vitro canine TRPM8 functional assay (Ca2+-sensitive dye, FLIPR/FDSS, icilin activation)
Type: cell-based
Settings: HEK293 cells expressing canine TRPM8, icilin activation; for % I (1 μM): 1 μM compound; for IC50: eight-point dose-response; for % I (0.5 μM): 0.5 μM compound; for % I (5 μM): 5 μM compound
How it was run: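 Icilin challenge (final concentration producing ~80% of maximal response) followed a 5 min compound exposure in canine TRPM8-HEK293 cells dye-loaded with Calcium 3. Intracellular Ca2+ was read on FLIPR/FDSS. EC50 and IC50 values came from nonlinear sigmoidal dose-response fits of basal-subtracted, percent-of-maximum data averaged over quadruplicates.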

[1] = HEK293, read-out: % I (0.5 μM), 0.5 μM compound
[2] = HEK293, 0.5 μM compound, read-out: % I (0.5 μM)
[3] = HEK293, read-out: % I (1 μM), 1 μM compound

T1 sequence (Q1A7N1 1-1104): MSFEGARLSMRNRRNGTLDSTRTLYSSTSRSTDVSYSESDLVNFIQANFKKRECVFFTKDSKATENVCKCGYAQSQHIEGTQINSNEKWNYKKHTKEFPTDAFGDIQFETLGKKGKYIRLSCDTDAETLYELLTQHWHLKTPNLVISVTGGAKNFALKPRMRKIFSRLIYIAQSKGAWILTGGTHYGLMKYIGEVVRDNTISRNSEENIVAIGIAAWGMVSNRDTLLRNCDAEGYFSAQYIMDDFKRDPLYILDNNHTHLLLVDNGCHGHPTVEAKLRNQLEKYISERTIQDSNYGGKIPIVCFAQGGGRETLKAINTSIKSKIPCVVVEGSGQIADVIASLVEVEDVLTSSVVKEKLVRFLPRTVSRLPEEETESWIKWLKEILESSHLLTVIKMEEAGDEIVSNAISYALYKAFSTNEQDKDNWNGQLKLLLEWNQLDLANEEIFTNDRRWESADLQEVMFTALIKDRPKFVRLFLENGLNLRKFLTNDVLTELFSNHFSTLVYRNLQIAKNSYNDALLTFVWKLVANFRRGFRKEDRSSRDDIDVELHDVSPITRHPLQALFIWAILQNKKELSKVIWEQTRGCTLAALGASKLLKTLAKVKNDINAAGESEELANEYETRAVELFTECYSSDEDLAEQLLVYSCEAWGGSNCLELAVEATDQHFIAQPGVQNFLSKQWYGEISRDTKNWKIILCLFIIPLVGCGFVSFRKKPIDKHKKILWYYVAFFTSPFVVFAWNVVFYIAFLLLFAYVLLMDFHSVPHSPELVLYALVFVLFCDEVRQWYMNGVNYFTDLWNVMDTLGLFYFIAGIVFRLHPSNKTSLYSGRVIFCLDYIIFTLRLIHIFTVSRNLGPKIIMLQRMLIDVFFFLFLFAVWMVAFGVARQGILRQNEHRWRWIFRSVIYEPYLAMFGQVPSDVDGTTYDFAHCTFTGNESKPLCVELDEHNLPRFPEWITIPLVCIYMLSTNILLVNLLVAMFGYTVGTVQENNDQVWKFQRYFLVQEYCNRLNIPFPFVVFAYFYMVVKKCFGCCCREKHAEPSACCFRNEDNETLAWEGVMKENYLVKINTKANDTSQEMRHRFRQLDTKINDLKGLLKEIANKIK

| Molecule | IC50 (read-out: IC50) | % I (0.5 μM) | also measured |
| --- | --- | --- | --- |
| CC(C)OP(=O)(OC(C)C)C(Cc1ccc(F)c(F)c1)c1sc2ccccc2c1C(C)C (stereo not shown) [Cpd 19] | 0.068 µM |  | % I (1 μM): 100% |
| CC(C)OP(=O)(OC(C)C)C(Cc1ccc(C(F)(F)F)cc1F)c1sc2ccccc2c1Cl (stereo not shown) [Cpd 191] | 0.125 µM | 104% |  |
| COc1ccc(CC(c2sc3ccccc3c2Br)P(=O)(OC(C)C)OC(C)C)cc1F (racemic) [Cpd 159] | 0.036 µM | 103% |  |
| CC(C)OP(=O)(OC(C)C)C(Cc1ccc(Cl)cc1)c1sc2ccccc2c1Br (racemic) [Cpd 288] | 0.065 µM | 103% |  |
| (R)-[1-(3-Bromo-benzo[b]thiophen-2-yl)-2-(4-fluoro-phenyl)-ethyl]-phosphonic acid diisopropyl ester [Cpd 240] |  | 98% and 77% |  |
| CCOP(=O)(OCC)C(Cc1cc(C(F)(F)F)ccc1F)c1sc2ccccc2c1Cl (racemic) [Cpd 286] | 0.127 µM | 102% |  |
| CCOP(=O)(OCC)C(Cc1ccc(SC)cc1)c1sc2ccccc2c1Br (racemic) [Cpd 247] | 0.121 µM | 103% |  |
| CCOP(=O)(OCC)C(Cc1cc(C(F)(F)F)ccc1F)c1sc2ccccc2c1C (stereo not shown) [Cpd 67] | 0.33 µM |  | % I (1 μM): 100% |
| CCOP(=O)(OCC)C(Cc1ccc(Cl)c(F)c1)c1sc2ccccc2c1Br (stereo not shown) [Cpd 258] | 0.045 µM | 102% |  |
| CC(C)OP(=O)(OC(C)C)C(Cc1ccc(C(F)(F)F)c(F)c1)c1sc2ccccc2c1Cl (stereo not shown) [Cpd 174] | 0.089 µM | 104% |  |
| CC(C)OP(=O)(OC(C)C)C(Cc1ccccc1F)c1sc2cc(Br)ccc2c1Br (stereo not shown) [Cpd 199] |  |  | % I (1 μM): 81% |
| CCOP(=O)(OCC)C(Cc1ccc(OC)c(C(F)(F)F)c1)c1sc2ccccc2c1Br (racemic) [Cpd 152] | 0.054 µM and 0.05 µM | 102% and 92% |  |
| CCOP(=O)(OCC)C(Cc1ccc(F)c(F)c1)c1sc2ccccc2c1-c1ccccc1F (racemic) [Cpd 216] | 0.126 µM | 100% |  |
| CCOP(=O)(OCC)C(Cc1ccc(Cl)c(C(F)(F)F)c1)c1sc2ccccc2c1Cl (racemic) [Cpd 287] | 0.124 µM | 103% |  |
| CC(C)OP(=O)(OC(C)C)C(Cc1cccc(C(F)(F)F)c1)c1sc2ccccc2c1Cl (racemic) [Cpd 170] | 0.073 µM | 103% |  |
| CC(C)OP(=O)(OC(C)C)C(Cc1cccc(C(F)(F)F)c1)c1cc2ccccc2s1 (stereo not shown) [Cpd 69] | 0.35 µM |  | % I (1 μM): 99% |
| CCOP(=O)(OCC)C(Cc1ccc(F)c(F)c1)c1sc2ccccc2c1-c1cccc(F)c1 (stereo not shown) [Cpd 217, {2-(3,4-Difluoro-phenyl)-1-[3-(3-fluoro-phenyl)-benzo[b]thiophen-2-yl)-ethyl]-phosphonic acid diethyl ester] |  |  | inhibition at 0.5 µM [1]: 100%; IC50 (IC50 (μM)): 0.142 µM |
| CCOP(=O)(OCC)C(Cc1ccc(S(=O)(=O)C(F)(F)F)cc1)c1sc2ccccc2c1Br (stereo not shown) [Cpd 262] | 0.066 µM | 103% |  |
| CC(C)OP(=O)(OC(C)C)C(Cc1cc(C(F)(F)F)cc(Cl)c1F)c1sc2ccccc2c1Br (stereo not shown) [Cpd 195] | 0.061 µM |  | % I (1 μM): 103% |
| CCOP(=O)(OCC)C(Cc1cc(OC)c(Cl)cc1F)c1sc2ccccc2c1Br (racemic) [Cpd 164] | 0.082 µM | 94% |  |
| CCOP(=O)(OCC)C(Cc1ccc(OC)cc1)c1sc2ccccc2c1Br (stereo not shown) [Cpd 321] | 0.043 µM | 102% |  |
| CC(C)OP(=O)(OC(C)C)/C(=C/c1ccc(F)c(F)c1)c1cc2ccccc2s1 [Cpd 333, (E)-[1-Benzo[b]thiophen-2-yl-2-(3,4-difluoro-phenyl)-vinyl]-phosphonic acid diisopropyl ester] | 0.176 µM |  | inhibition at 0.5 µM [2]: 95% |
| CCOP(=O)(OCC)C(Cc1ccc(F)c(F)c1)c1sc2ncccc2c1Br (stereo not shown) [Cpd 132, 1-[(3-Bromo-thieno[2,3-b]pyridin-2-yl)-2-(3,4-difluoro-phenyl)-ethyl]-phosphonic acid diethyl ester] |  |  | inhibition at 1 µM [3]: 102%; IC50 (IC50 (μM)): 0.11 µM |
| CCOP(=O)(OCC)C(Cc1ccccc1Cl)c1cc2ccccc2s1 (stereo not shown) [Cpd 85] | 0.48 µM |  | % I (1 μM): 90%; % I (5 μM): 100% |
| CCOP(=O)(OCC)C(Cc1ccc(OC)c(C(F)(F)F)c1)c1sc2ccccc2c1Cl (racemic) [Cpd 292] | 0.216 µM | 99% |  |

| Molecule | IC50 (read-out: IC50) | % I (0.5 μM) | also measured |
| --- | --- | --- | --- |
| CCOP(=O)(OCC)C(Cc1ccc(O)c(F)c1)c1sc2ccccc2c1Br (racemic) [Cpd 226] |  | 34% |  |
| CCOP(=O)(OCC)C(Cc1cccc(OC(F)(F)F)c1)c1sc2ccccc2c1Br (racemic) [Cpd 145] | 0.119 µM and 0.116 µM | 103% and 102% |  |
| CC(C)OP(=O)(OC(C)C)C(Br)(Cc1ccc(F)c(F)c1)c1sc2ccccc2c1Br (stereo not shown) [Cpd 93, [1-Bromo-1-(3-bromo-benzo[b]thiophen-2-yl)-2-(3,4-difluoro-phenyl)-ethyl]-phosphonic acid diisopropyl ester] | 0.58 µM |  | inhibition at 1 µM (HEK293, 1 μM compound, read-out: % I (1 μM)): 80% |
| CC(C)OP(=O)(OC(C)C)C(Cc1ccc(Cl)cc1)c1sc2ccccc2c1Cl (stereo not shown) [Cpd 181] | 0.112 µM | 103% |  |
| CCOP(=O)(OCC)C(Cc1ccc(F)c(O)c1)c1sc2ccccc2c1Br (stereo not shown) [Cpd 225, [1-(3-Bromo-benzo[b]thiophen-2-yl)-2-(4-fluoro-3-hydroxy-phenyl)-ethyl]-phosphonic acid diethyl ester] |  |  | inhibition at 0.5 µM [1]: 103%; IC50 (IC50 (μM)): 0.027 µM |
| CCOP(=O)(OCC)C(Cc1ccc(Cl)cc1)c1sc2ccccc2c1Br (stereo not shown) [Cpd 257] | 0.026 µM | 101% |  |
| CCOP(=O)(CC(C)C)C(Cc1ccc(F)c(F)c1)c1sc2ccccc2c1C (stereo not shown) [Cpd 36, [2-(3,4-Difluoro-phenyl)-1-(3-methyl-benzo[b]thiophene-2-yl)-ethyl]-isobutyl-phosphonic acid ethyl ester] | 0.126 µM |  | % I (1 μM): 100% |
| CCOP(=O)(OCC)C(Cc1cc(O)cc(O)c1)c1sc2ccccc2c1Br (stereo not shown) [Cpd 322] |  | 45% |  |
| CC(C)OP(=O)(OC(C)C)C(Cc1cc(Cl)ccc1F)c1sc2ccccc2c1Cl (racemic) [Cpd 303] | 0.049 µM | 102% |  |
| CC(C)OP(=O)(OC(C)C)C(Cc1cccc(C(F)(F)F)c1Cl)c1sc2ccccc2c1Br (stereo not shown) [Cpd 268] | 0.034 µM | 104% |  |
| CCOP(=O)(OCC)C(Cc1ccc(F)c(F)c1)c1sc2cccc(Cl)c2c1C (stereo not shown) [Cpd 65, [1-(4-Chloro-3-methyl-benzo[b]thiophen-2-yl)-2-(3,4-difluoro-phenyl)-ethyl]-phosphonic acid diethyl ester] |  |  | inhibition at 1 µM [3]: 100%; IC50 (IC50 (μM)): 0.3 µM |
| [2-(3,4-Difluoro-phenyl)-1-(3-methyl-benzo[b]thiophene-2-yl)-ethyl]-[3-(4-methoxy-phenyl)-propyl]-phosphonic acid ethyl ester [Cpd 136] | 0.42 µM |  | % I (1 μM): 91% |
| CCOP(=O)(OCC)C(Cc1ccc(F)c(F)c1)c1sc2cccc(F)c2c1C (stereo not shown) [Cpd 3, [2-(3,4-Difluoro-phenyl)-1-(4-fluoro-3-methyl-benzo[b]-thiophene-2-yl)-ethyl]-phosphonic acid diethyl ester] |  |  | inhibition at 1 µM [3]: 100%; IC50 (IC50 (μM)): 0.012 µM and 0.051 µM |
| CCOP(=O)(OCC)C(Cc1cccc(C(F)(F)F)c1F)c1sc2ccccc2c1Br (stereo not shown) [Cpd 142] | 0.054 µM | 101% |  |
| CC(C)OP(=O)(OC(C)C)C(Cc1ccc(F)c(F)c1)c1sc2cccc(F)c2c1Br (stereo not shown) [Cpd 221, [1-(3-Bromo-4-fluoro-benzo[b]thiophen-2-yl)-2-(3,4-difluoro-phenyl)-ethyl]-phosphonic acid diisopropyl ester] | 0.032 µM |  | inhibition at 0.5 µM [2]: 102% |
| CCOP(=O)(OCC)C(Cc1ccccc1Cl)c1sc2ccccc2c1Cl (stereo not shown) [Cpd 269] | 0.162 µM | 102% |  |
| COP(=O)(OC)C(Cc1ccc(F)c(F)c1)c1sc2ccccc2c1Br (stereo not shown) [Cpd 201] | 0.133 µM |  | % I (1 μM): 100% |
| CC(C)OP(=O)(OC(C)C)C(Cc1cccc(Br)c1)c1sc2ccccc2c1Cl (stereo not shown) [Cpd 182] | 0.075 µM | 104% |  |
| CCOP(=O)(OCC)C(Cc1ccc(F)c(F)c1)c1sc2ccc(F)cc2c1C (stereo not shown) [Cpd 45, [2-(3,4-Difluoro-phenyl)-1-(5-fluoro-3-methyl-benzo[b]thiophene-2-yl)-ethyl]-phosphonic acid diethyl ester] |  |  | inhibition at 1 µM [3]: 100%; IC50 (IC50 (μM)): 0.164 µM |
| CC(C)OP(=O)(OC(C)C)C(Cc1ccc(F)cc1)c1sc2ccccc2c1Cl (racemic) [Cpd 306] |  | 101% and 102% |  |
| CCC(C)P(=O)(C(C)CC)C(Cc1ccc(F)c(F)c1)c1oc2ccccc2c1Br (stereo not shown) [Cpd 123] | 0.28 µM |  | % I (1 μM): 103% |
| CCOP(=O)(OCC)C(Cc1cccc(OC)c1)c1sc2ccccc2c1Br (stereo not shown) [Cpd 314] | 0.029 µM and 0.021 µM | 103% and 104% |  |
| CC(C)OP(=O)(OC(C)C)C(Cc1cc(C(F)(F)F)ccc1F)c1sc2ccccc2c1Cl (racemic) [Cpd 172] | 0.105 µM | 104% |  |
| CCOP(=O)(OCC)C(Cc1ccc(F)cc1C(F)(F)F)c1sc2ccccc2c1Br (racemic) [Cpd 245] | 0.124 µM | 103% |  |
| CCOP(=O)(OCC)C(Cc1ccc(Br)cc1)c1cc2ccccc2s1 (stereo not shown) [Cpd 70] | 0.35 µM |  | % I (1 μM): 82%; % I (5 μM): 99% |
